Results from patent US9101579B2, “Inhibition of drug resistant cancer cells” (Celgene Corporation, priority 2012, dated 2015).
“Also recorded” adds a separate entry of the source.

Legend:
M14 melanoma cell line = experiment: Drug treatment and CellTiter-Glo cell viability assay, emergence of drug-tolerant expanded persisters (DTEP) in M14 cells; format: cell-based; details: for emergence of DTEPs, continuous co-treatment: 2 μM AZ628 + 0.5 nM (sub-lethal) romidepsin every 3 days, continuous schedule 45 days, FIG. 1
Description: (§1) The M14 melanoma and HCC827 non-small cell lung cancer cell (NSCLC) cell lines were purchased from American Type Culture Collection (ATCC; Manassas, Va.). Cells were cultured at 37° C./5% CO2 in RPMI-1640 medium (ATCC) supplemented with 10% FBS. AZ628 and Erlotnib were purchased from Selleck Chemicals (Houston, Tex.) and reconstituted in DMSO to 20 mM. Romidepsin (Celgene Corporation) was reconstituted in DMSO to 10 μM. All drugs were stored at −30° C.
(§2) Romidepsin was used at a final concentration of 1 nM for HCC827 cells and 0.5 nM for M14 cells. Conditioned media were replaced with fresh drug-containing media every three days (“continuous Q3D” schedule). The Q3D schedule was evaluated continuously over a period of 27-45 days, and also for shorter durations ranging from 3-21 days.
(§3) Cell viability was monitored periodically over 27-45 days using CellTiter-Glo (CTG). On select days, an equal volume (1 mL) of CTG was added to each well of the 24-well plates. The plates, wrapped with aluminum foil, were incubated on a shaking platform for 10 minutes. A 200 μL aliquot from each well was transferred to a new well of 96-well plates. The SpectraMax L (Molecular Devices; Sunnyvale, Calif.) was used to measure luminescence.

[1] = system: HCC827 non-small cell lung cancer cell line; experiment: Drug treatment and CellTiter-Glo cell viability assay, emergence of drug-tolerant expanded persisters (DTEP) in HCC827 cells; format: cell-based
Description: as §1, §2, §3
Conditioned medium was replaced with fresh drug-containing medium every three days. Starting on day 12, the drug-containing medium also included 1 nM romidepsin. Cell viability was monitored on days 0, 15, and 37 using CellTiter-Glo (CTG).

Cc1ccc(NC(=O)c2cccc(C(C)(C)C#N)c2)cc1Nc1ccc2ncn(C)c(=O)c2c1 [AZ628]
outgrowth of DTPs into DTEPs under continued AZ628 alone (M14 melanoma cell line; M14 cells, continued treatment with AZ628 2 μM every 3 days): yielding a large population of AZ628-resistant cells | cell death on treatment with AZ628 alone (M14 melanoma cell line; M14 cells, high concentration (100×IC50; 2 μM) AZ628, after 9 days): Massive cell death

C/C=C1\NC(=O)[C@H]2CSSCC/C=C/[C@H](CC(=O)N[C@H](C(C)C)C(=O)N2)OC(=O)[C@H](C(C)C)NC1=O [romidepsin, (1S,4S,7Z,10S,16E,21R)-7-ethylidene-4,21-bis(1-methylethyl)-2-oxa-12,13-dithia-5,8,20,23-tetrazabicyclo[8.7.6]tricos-16-ene-3,6,9,19,22-pentone]
emergence of DTEP, reduced romidepsin schedule (M14 melanoma cell line; M14 cells treated with 2 μM AZ628, romidepsin 0.5 nM every 3 days for 2 weeks, FIGS. 3A and 3B): prevented the emergence of DTEP | number of romidepsin doses sufficient to prevent emergence of DTEP (M14 melanoma cell line; M14 cells treated with 2 μM AZ628, romidepsin 0.5 nM every 3 days, FIGS. 3A and 3B): 5 doses | emergence of DTEPs, continuous co-treatment (M14 melanoma cell line; M14 cells): prevented the DTEP emergence | emergence of DTEPs, continuous co-treatment (M14 melanoma cell line; M14 cells, listed as romidespin): prevented the emergence of DTEPs | DTEP growth, short (6-hour) romidepsin exposure (wash-out) (M14 melanoma cell line; M14 cells, 2 μM AZ628, higher romidepsin concentration (0.5, 2 or 10 nM tested), 6-hour exposure on continuous schedule, FIG. 4A): sufficient to prevent DTEP growth | Erlotinib-resistant cells after delayed addition of romidepsin ([1]; HCC827 cells pretreated with 2 μM Erlotinib every 3 days, 1 nM romidepsin added from day 12, viability on days 0, 15, 37, FIG. 5): eliminated Erlotinib-resistant HCC827 cells | emergence of DTEPs, reduced romidepsin schedule ([1]; HCC827 cells treated with 2 μM Erlotinib, romidepsin 1.0 nM every 3 days for 2 weeks, FIG. 3C): prevented the emergence of DTEPs | number of romidepsin doses sufficient to prevent emergence of DTEP ([1]; HCC827 cells treated with 2 μM Erlotinib, romidepsin 1.0 nM every 3 days, FIG. 3C): 4 doses | emergence of DTEPs, continuous co-treatment ([1]; HCC827 cells, 2 μM Erlotinib + 1.0 nM (sub-lethal) romidepsin every 3 days, continuous schedule 27 days, FIG. 2): prevented the emergence of DTEPs; also recorded: prevented the DTEP emergence | DTEP growth, short (6-hour) romidepsin exposure (wash-out) ([1]; HCC827 cells, 2 μM Erlotinib, higher romidepsin concentration (1, 5 and 20 nM tested), 6-hour exposure on continuous schedule, FIG. 4B): sufficient to prevent DTEP growth

C#Cc1cccc(Nc2ncnc3cc(OCCOC)c(OCCOC)cc23)c1 [Erlotinib]
cell death on treatment with Erlotinib alone ([1]; NSCLC (HCC827) cells, high concentration (100×IC50; 2 μM) Erlotinib, after 9 days): Massive cell death
